Reference: patent US20240190854A1, “PYRIMIDINE OR PYRIDINE DERIVATIVES USEFUL AS HCN2 MODULATORS” (King's College London, priority 2021, published 2024)
Counter-ions that a name gives are not always drawn.

Experiments:
[1] = target: HCN2 (Homo sapiens (Human), UniProt Q9UL51); experiment: HCN2 current assay using PatchXpress 7000A; type: cell-based; settings: PatchXpress protocol; read-out: PX HCN2 IC50
Method in brief: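 Automated patch clamp (PatchXpress 7000A) at about 22° C. HCN current taken as leak-subtracted peak inward current at the end of a step to −110 mV, with a return to −30 mV for 8 seconds. Cumulative concentrations applied 7 minutes each; amplitude normalised to control.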

[2] = target: HCN4 (Homo sapiens (Human), UniProt Q9Y3Q4); experiment: HCN4 current assay using PatchXpress 7000A; type: cell-based; settings: PatchXpress protocol; read-out: PX HCN4 IC50
Method in brief: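 Peak inward current taken at end of a −130 mV pulse, leak-subtracted, and normalized to the control amplitude. Cumulative concentrations applied for 7 min each at room temperature (approximately 22° C.) on an automated patch-clamp platform.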

[3] = target: hERG channel (Homo sapiens (Human), UniProt Q12809); experiment: hERG assay using IonWorks Quattro; type: cell-based; settings: IonWorks protocol; read-out: IW hERG IC50
Procedure: Example 127A, Using IonWorks Quattro
Solutions for recording hERG currents were:
This was followed by a […] step of is to −30 mV to evoke the hERG tail current. This sequence was repeated 5 times at a frequency of 0.25 Hz (see FIG. 3). Currents were measured from the tail step at the 5th pulse and referenced to the holding current. Compounds were then incubated for 6-7 minutes prior to a second measurement of the hERG signal using an identical pulse train.

[4] = target: hNav1.5 (Homo sapiens (Human), UniProt Q14524)
Procedure: Solutions for recording Nav1.5 currents were:
Electrophysiological recordings were made from a human embryonic kidney (HEK) cell line stably expressing the full length hNav1.5. Population patch clamp measurements were made in the perforated patch clamp configuration (100 μg ml^−1 amphotericin) at room temperature (approx. 22° C.) using an IonWorks Quattro from Molecular Devices. […] Currents were first measured under control (pre-compound addition) conditions. […] Currents were measured from the depolarising step at the 15th pulse and referenced to the holding current.

[5] = target: MDR1 (P-glycoprotein) (Homo sapiens (Human), UniProt P08183); experiment: in vitro; settings: dog, MDCK-MDR1, pH 7.4
Procedure: Test compounds were added (10 μM, 0.1% DMSO final, n=2) to donor compartments of the Transwell plate assembly in assay buffer (Hanks balanced salt solution supplemented with 25 mM HEPES, adjusted to pH 7.4) for both apical to basolateral (A>B) and basolateral to apical (B>A) measurements. A parallel series of incubations were performed in the presence of the transporter inhibitor elacridar (5 μM) which was added to both compartments in the transwell plate. Incubations were performed at 37° C., with samples removed from both donor and acceptor chambers at T=0 and 1 hour for recovery assessment and compound analysed by mass spectrometry (LC-MS/MS), including an analytical internal standard.
Apparent permeability (Papp) values were determined from the relationship:
Where V is the volume of each Transwell compartment (apical 125 μL, basolateral 600 μL), and concentrations are the relative MS responses for compound (normalized to internal standard) in the donor chamber before incubation and acceptor chamber at the end of the incubation.
Area=area of cells exposed for drug transfer (0.33 cm2).
Efflux ratios (Papp B>A/Papp A>B) were calculated for each compound from the mean Papp values in each direction. […] The efflux ratios were also calculated in the same way from the runs carried out in the presence of the inhibitor. The net flux is the ratio of the efflux in the absence of inhibitor to that in the presence of inhibitor.
Lucifer Yellow (LY) was added to the apical buffer in all wells to assess viability of the cell layer.
Compound recovery from the wells was determined from MS responses (normalized to internal standard) in donor and acceptor chambers at the end of incubation compared to response in the donor chamber pre-incubation.

Chain of hNav1.5 (Q14524 whole entry): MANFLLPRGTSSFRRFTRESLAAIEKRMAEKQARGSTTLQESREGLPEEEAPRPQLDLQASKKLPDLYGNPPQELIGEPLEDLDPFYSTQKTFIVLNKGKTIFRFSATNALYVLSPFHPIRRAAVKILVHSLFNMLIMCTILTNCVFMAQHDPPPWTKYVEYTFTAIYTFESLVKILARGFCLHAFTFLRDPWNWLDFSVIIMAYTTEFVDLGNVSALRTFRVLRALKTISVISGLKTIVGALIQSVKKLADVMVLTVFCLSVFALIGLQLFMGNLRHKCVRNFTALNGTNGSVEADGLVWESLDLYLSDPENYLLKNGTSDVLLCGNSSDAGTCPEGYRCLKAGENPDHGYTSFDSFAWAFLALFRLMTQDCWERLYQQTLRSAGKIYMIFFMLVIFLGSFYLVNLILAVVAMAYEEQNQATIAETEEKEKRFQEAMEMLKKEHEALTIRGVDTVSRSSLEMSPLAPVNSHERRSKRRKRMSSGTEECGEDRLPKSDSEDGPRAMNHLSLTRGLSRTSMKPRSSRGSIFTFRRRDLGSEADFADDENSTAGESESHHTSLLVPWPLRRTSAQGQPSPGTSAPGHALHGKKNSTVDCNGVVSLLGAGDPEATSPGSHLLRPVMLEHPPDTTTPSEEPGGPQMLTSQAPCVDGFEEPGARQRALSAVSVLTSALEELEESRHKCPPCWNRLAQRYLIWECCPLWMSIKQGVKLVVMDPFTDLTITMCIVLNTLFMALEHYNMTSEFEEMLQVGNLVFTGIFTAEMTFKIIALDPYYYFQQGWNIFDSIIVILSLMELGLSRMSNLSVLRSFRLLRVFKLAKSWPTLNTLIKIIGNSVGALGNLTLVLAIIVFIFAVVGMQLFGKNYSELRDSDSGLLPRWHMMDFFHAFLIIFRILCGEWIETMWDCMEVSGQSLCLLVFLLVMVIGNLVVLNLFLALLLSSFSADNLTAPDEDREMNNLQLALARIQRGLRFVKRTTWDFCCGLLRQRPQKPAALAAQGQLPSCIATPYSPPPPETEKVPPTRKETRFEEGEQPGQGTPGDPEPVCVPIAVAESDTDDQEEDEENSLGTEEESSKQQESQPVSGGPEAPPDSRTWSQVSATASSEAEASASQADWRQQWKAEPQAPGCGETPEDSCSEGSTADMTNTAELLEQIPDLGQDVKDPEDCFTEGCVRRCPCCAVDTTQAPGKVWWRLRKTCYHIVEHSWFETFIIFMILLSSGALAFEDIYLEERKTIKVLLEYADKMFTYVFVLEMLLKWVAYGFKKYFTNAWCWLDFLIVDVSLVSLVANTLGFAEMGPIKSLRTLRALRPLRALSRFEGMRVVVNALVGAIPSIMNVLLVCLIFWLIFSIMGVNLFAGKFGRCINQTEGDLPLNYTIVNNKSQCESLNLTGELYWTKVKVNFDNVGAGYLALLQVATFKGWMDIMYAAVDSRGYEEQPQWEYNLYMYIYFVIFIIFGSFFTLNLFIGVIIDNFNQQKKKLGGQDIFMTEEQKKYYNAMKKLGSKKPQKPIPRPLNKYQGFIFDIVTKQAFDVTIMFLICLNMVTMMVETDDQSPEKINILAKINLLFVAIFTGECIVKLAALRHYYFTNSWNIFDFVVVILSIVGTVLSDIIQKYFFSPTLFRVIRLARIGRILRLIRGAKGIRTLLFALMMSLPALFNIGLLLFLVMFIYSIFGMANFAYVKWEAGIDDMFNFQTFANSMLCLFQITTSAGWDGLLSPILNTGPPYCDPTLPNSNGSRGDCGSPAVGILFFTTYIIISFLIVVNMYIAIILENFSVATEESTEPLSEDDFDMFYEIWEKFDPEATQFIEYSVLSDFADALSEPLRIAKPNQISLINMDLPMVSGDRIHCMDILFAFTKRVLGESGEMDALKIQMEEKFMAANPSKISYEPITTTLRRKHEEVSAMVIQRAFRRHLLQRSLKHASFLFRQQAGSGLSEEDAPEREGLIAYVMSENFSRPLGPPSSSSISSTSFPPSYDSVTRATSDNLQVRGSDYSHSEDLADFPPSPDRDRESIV
Chain of HCN2 (Q9UL51 whole entry): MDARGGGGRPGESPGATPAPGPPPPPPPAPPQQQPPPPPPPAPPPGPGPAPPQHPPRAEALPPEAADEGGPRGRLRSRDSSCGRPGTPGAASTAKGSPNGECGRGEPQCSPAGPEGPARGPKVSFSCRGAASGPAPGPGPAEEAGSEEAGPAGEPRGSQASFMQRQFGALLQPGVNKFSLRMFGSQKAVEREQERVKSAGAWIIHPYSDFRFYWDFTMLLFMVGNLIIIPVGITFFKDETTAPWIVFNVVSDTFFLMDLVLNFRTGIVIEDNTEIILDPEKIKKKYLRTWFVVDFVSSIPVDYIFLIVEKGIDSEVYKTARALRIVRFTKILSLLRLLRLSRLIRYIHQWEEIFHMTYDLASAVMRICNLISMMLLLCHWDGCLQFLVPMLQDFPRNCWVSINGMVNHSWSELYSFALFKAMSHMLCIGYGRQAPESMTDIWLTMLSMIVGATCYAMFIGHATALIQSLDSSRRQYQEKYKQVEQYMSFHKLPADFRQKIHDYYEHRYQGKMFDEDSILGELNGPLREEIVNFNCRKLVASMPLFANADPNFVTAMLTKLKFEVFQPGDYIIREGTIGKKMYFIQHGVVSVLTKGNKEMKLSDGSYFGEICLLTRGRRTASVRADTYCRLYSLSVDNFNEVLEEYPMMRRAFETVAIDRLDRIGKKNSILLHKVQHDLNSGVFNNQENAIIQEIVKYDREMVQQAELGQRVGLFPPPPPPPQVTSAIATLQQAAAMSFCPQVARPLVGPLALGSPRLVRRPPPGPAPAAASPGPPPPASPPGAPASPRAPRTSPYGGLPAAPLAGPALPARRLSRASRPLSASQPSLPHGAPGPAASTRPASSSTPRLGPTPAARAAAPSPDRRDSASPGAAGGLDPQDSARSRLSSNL
Chain of HCN4 (Q9Y3Q4 whole entry, species assumed): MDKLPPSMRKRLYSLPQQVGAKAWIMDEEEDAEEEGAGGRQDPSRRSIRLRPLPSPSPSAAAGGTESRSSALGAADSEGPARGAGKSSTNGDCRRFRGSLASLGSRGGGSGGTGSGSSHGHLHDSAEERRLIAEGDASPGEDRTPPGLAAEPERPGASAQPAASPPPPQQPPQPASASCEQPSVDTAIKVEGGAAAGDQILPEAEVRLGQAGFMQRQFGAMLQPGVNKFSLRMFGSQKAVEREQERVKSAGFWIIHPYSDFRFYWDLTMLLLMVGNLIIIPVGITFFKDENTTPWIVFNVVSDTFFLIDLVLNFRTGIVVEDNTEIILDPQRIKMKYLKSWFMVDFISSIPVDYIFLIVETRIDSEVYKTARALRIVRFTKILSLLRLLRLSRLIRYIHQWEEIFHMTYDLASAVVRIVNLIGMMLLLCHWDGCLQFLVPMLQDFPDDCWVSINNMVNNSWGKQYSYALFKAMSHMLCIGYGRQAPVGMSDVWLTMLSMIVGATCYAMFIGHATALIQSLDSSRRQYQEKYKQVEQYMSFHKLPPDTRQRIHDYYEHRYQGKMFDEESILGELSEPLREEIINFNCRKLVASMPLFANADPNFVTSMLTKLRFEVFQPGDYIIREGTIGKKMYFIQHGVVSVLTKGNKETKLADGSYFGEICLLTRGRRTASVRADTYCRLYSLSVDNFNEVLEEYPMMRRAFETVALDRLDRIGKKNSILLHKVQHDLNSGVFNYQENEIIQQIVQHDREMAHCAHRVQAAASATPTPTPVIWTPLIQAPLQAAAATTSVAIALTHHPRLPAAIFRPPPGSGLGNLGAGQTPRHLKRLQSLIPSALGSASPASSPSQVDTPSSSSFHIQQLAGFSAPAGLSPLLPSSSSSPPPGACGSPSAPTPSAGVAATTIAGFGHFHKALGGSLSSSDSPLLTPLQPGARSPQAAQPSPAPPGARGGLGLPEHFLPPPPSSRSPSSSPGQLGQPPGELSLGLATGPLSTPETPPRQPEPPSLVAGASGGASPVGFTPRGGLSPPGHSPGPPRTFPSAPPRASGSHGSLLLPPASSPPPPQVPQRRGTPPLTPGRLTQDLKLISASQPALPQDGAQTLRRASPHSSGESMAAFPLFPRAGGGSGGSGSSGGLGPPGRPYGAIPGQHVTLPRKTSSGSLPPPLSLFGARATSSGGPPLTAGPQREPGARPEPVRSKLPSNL

| SMILES | IC50 [1] | IC50 [2] | IC50 [3] | IC50 [4] | efflux ratio at 1 h, 10 μM [5] |
| --- | --- | --- | --- | --- | --- |
| Cc1ccc(-c2noc3ccccc23)c([C@@H](N)Cc2ccccn2)c1 [Example 36, (S)-1-[2-(Benzo[d]isoxazol-3-yl)-5-methylphenyl]-2-(pyridine-2-yl)ethan-1-amine hydrochloride] | 1.2 µM | > 30 µM | 5 µM | 5.6 µM | 0.8 |
| COCc1ccc2c(-c3ccccc3[C@@H](N)Cc3ccccn3)noc2c1 [Example 39, (S)-1-[2-(6-Methoxymethylbenzo[d]isoxazol-3-yl)phenyl]-2-(pyridine-2-yl)ethan-1-amine] | 4 µM | > 30 µM | 7.6 µM | 27.3 µM | 2.7 |
| N[C@@H](Cc1ccccn1)c1ccccc1-c1noc2ccccc12 [Example 42, (S)-1-[2-(Benzo[d]isoxazol-3-yl)phenyl]-2-(pyridine-2-yl)ethan-1-amine hydrochloride] | 1.1 µM | > 30 µM | 3.8 µM | 6.9 µM | 1.5 |
| N[C@@H](Cc1ncccn1)c1ccccc1-c1noc2ccccc12 [Example 56, (S)-1-[2-(Benzo[d]isoxazol-3-yl)phenyl]-2-(pyrimidine-2-yl)ethan-1-amine] | 1.2 µM | 30 µM | 14.4 µM | 7 µM | 2.5 |
| CC(C)n1nc(-c2ccccc2[C@@H](N)Cc2cccc(C#N)n2)c2ccccc21 [Example 67, (S)-2-(6-Cyanopyridine-2-yl)-1-[2-(1-isopropyl-1H-indazole-3-yl)phenyl]ethan-1-amine] | 1.3 µM | 19.5 µM | 3.7 µM | 9.5 µM |  |
| N#Cc1cccnc1C[C@H](N)c1ccccc1-c1noc2ccccc12 [Example 75, (S)-1-[2-(Benzo[d]isoxazol-3-yl)phenyl]-2-(3-cyanopyridin-2-yl)ethan-1-amine] | 1.2 µM | 6.6 µM | 1.5 µM | 6.6 µM |  |
| N[C@@H](Cc1nc(CCO)ccc1F)c1ccccc1-c1noc2ccccc12 [Example 77, (S)-2-(6-{2-Amino-2-(2-benzo[d]isoxazol-3-yl)phenyl]ethyl}-5-fluoropyridin-2-yl)ethan-1-ol hydrochloride] | 0.9 µM | 10.4 µM | > 33 µM | 6.5 µM |  |
| Cc1cccc(-c2noc3ccccc23)c1[C@@H](N)Cc1ccccn1 [Example 84, (S)-1-[2-(Benzo[d]isoxazol-3-yl)-6-methylphenyl]-2-(pyridine-2-yl)ethan-1-amine hydrochloride] | 0.9 µM | 27 µM | 3 µM | 5.7 µM | 0.8 |
| CN(C)C(=O)c1cccc(C[C@H](N)c2ccccc2-c2noc3ccccc23)n1 [Example 89, (S)-6-{2-Amino-2-[2-(Benzo[d]isoxazol-3-yl)phenyl]ethyl-N,N-dimethylpyridine-2-carboxamide hydrochloride] | 3.1 µM | > 30 µM | 19.1 µM | 5.8 µM | 24.6 |
| Cn1cc(-c2cccc(C[C@H](N)c3ccccc3-c3noc4ccccc34)n2)cn1 [Example 90, (S)-1-[2-(Benzo[d]isoxazol-3-yl)phenyl]-2-[6-(1-methyl-1H-pyrazol-4-yl)pyridine-2-yl]ethan-1-amine hydrochloride] | 2.9 µM | 7.1 µM | 4.1 µM | 10.6 µM |  |
| N[C@@H](Cc1cccc(-c2cn[nH]c2)n1)c1ccccc1-c1noc2ccccc12 [Example 91, (S)-2-[6-(1H-Pyrazol-4-yl)pyridine-2-yl])-1-[2-(benzo[d]isoxazol-3-yl)phenyl]ethan-1-amine hydrochloride] | 1 µM | 9.9 µM | 1.8 µM | 3.4 µM | 23.1 |
| Cc1ccc(C[C@H](N)c2ccccc2-c2noc3ccccc23)nc1 [Example 92, (S)-1-[2-(Benzo[d]isoxazol-3-yl)phenyl]-2-(5-methylpyridine-2-yl)ethan-1-amine hydrochloride] | 1.9 µM | > 30 µM | 6.4 µM | 1.4 µM |  |
| N#Cc1ccc(C[C@H](N)c2ccccc2-c2noc3ccccc23)nc1 [Example 93, (S)-1-[2-(Benzo[d]isoxazol-3-yl)phenyl]-2-(5-cyanopyridine-2-yl)ethan-1-amine hydrochloride] | 1.8 µM | > 30 µM | 7.5 µM | 2.2 µM |  |
| N#Cc1ccc2c(-c3ccccc3[C@@H](N)Cc3cccc(C#N)n3)noc2c1 [Example 95, (S)-1-[2-(6-Cyanobenzo[d]isoxazol-3-yl)phenyl]-2-(6-cyanopyridine-2-yl)ethan-1-amine] | 1.4 µM | > 30 µM | 2.9 µM | > 33 µM | 4.5 |
| CNc1cccc(C[C@H](N)c2ccccc2-c2noc3cc(C#N)ccc23)n1 [Example 97, (S)-1-[2-(6-Cyanobenzo[d]isoxazol-3-yl)phenyl]-2-(6-methylaminopyridine-2-yl)ethan-1-amine dihydrochloride] | 2.6 µM | 13.3 µM | 0.54 µM | 8.4 µM | 12.2 |
| N#Cc1ccc2c(-c3ccccc3[C@@H](N)Cc3cccc(OCCO)n3)noc2c1 [Example 99, (S)-1-[2-(6-Cyanobenzo[d]isoxazol-3-yl)phenyl]-2-[6-(2-hydroxyethoxyl)pyridine-2-yl]ethan-1-amine hydrochloride] | 2.4 µM | > 30 µM | 2.1 µM | 18.5 µM | 78.5 |
| N[C@@H](Cc1cccc(CCO)n1)c1ccccc1-c1noc2ccccc12 [Example 100, (S)-1-[2-(Benzo[d]isoxazol-3-yl)phenyl]-2-[6-(2-hydroxyethyl)pyridine-2-yl]ethan-1-amine hydrochloride] | 2.3 µM | > 30 µM | 12.8 µM | 2.8 µM | 8.7 |
| CCc1cccc(C[C@H](N)c2ccccc2-c2noc3ccccc23)n1 [Example 101, (S)-1-[2-(Benzo[d]isoxazol-3-yl)phenyl]-2-(6-ethylpyridine-2-yl)ethan-1-amine hydrochloride] | 0.7 µM | 13.1 µM | 2.8 µM | 1.6 µM |  |
| CN(C)C(=O)CCc1cccc(C[C@H](N)c2ccccc2-c2noc3ccccc23)n1 [Example 109, (S)-3-(6-{2-Amino-2-[2-(benzo[d]isoxazol-3-yl)phenyl]ethyl}pyridine-2-yl)-N,N-dimethylpropanamide hydrochloride] | 2.4 µM | > 30 µM | 4.3 µM | 3.2 µM |  |
| N[C@@H](Cc1ccccn1)c1c(F)cccc1-c1noc2ccccc12 [Example 111, (S)-1-[2-(Benzo[d]isoxazol-3-yl)-6-fluorophenyl]-2-(pyridin-2-yl)ethan-1-amine hydrochloride] | 1.8 µM | > 30 µM | 7.4 µM | 27.9 µM | 1 |
| Cc1cccc(C[C@H](N)c2c(F)cccc2-c2noc3ccccc23)n1 [Example 112, (S)-1-[2-(Benzo[d]isoxazol-3-yl)-6-fluorophenyl]-2-(6-methylpyridin-2-yl)ethan-1-amine hydrochloride] | 2 µM | 4.2 µM | 10.2 µM | 24.2 µM |  |
| N[C@@H](Cc1cc(Br)ccn1)c1ccccc1-c1noc2ccccc12 [Example 117, (S)-1-[2-(Benzo[d]isoxazol-3-yl)phenyl]-2-(4-bromopyridine-2-yl)ethan-1-amine hydrochloride)] | 1.4 µM | 12.2 µM | 2.2 µM | 2.7 µM |  |
| N[C@@H](Cc1cccc(-c2ncco2)n1)c1ccccc1-c1noc2ccccc12 [Example 118, (S)-1-[2-(Benzo[d]isoxazol-3-yl)phenyl]-2-[6-(oxazol-2-yl)pyridine-2-yl]ethan-1-amine hydrochloride] | 1.7 µM | 5.2 µM | 3.1 µM | 7.8 µM |  |
| N[C@@H](Cc1cccc(N2CCCC2)n1)c1ccccc1-c1noc2ccccc12 [Example 119, (S)-1-[2-(Benzo[d]isoxazol-3-yl)phenyl]-2-[6-(pyrrolidin-1-yl)pyridine-2-yl]ethan-1-amine hydrochloride] | 0.8 µM | 2.1 µM | 1.3 µM | 3.3 µM |  |
| Nc1cccc(C[C@H](N)c2ccccc2-c2noc3ccccc23)n1 [Example 121, (S)-6-{2-Amino-2-[2-(benzo[d]isoxazol-3-yl)phenyl]ethyl}pyridine-2-amine hydrochloride] | 1.3 µM | > 30 µM | 8.6 µM | 1.6 µM |  |
| COC(=O)Nc1cccc(C[C@H](N)c2ccccc2-c2noc3ccccc23)n1 [Example 124, Methyl (S)-(6-{2-Amino-2-[2-(benzo[d]isoxazol-3-yl)phenyl]ethyl}pyridine-2-yl)carbamate hydrochloride] | 2.1 µM | > 30 µM | 2.3 µM | 1.3 µM |  |
